Experimental data reported in patent US11072617B2, “Bicyclic sulfones and sulfoxides and methods of use thereof” (Genentech, Inc., priority 2017, dated 2021).

Target: human RIP1 kinase domain (2-375) (Homo sapiens (Human), UniProt Q13546)
Experiment: RIP1 kinase inhibition biochemical assay (Transcreener ADP, fluorescence polarization)
Details: Ki app from tight-binding Morrison equation; 50 nM enzyme, 50 uM ATP, 2 hours incubation
Outline: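 Baculovirus-expressed human RIP1 kinase domain (2-375), 50 nM, incubated 2 h with compounds in pH 7.5 Hepes, 30 mM MgCl2, 50 uM ATP, 0.5% DMSO. ADP detected by Transcreener fluorescence-polarization tracer displacement; Ki^app from Morrison tight-binding fit.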

human RIP1 kinase domain (2-375), sequence (Q13546 2-375): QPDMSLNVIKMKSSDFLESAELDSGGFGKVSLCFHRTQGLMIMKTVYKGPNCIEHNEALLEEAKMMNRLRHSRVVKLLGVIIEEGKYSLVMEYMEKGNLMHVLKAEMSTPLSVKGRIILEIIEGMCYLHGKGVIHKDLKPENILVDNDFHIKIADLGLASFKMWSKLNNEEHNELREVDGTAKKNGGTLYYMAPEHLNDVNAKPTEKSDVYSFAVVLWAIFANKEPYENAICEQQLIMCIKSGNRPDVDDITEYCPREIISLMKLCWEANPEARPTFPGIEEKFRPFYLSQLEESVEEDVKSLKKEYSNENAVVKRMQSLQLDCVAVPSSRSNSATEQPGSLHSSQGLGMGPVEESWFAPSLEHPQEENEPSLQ

| Structure (SMILES) | Ki [nM] |
| --- | --- |
| O=S(=O)(c1nc2n(n1)[C@H](c1cccc(F)c1Cl)C[C@@H]2F)C1CC1 (single isomer, unassigned) [Example 45] | < 5 |
| N#CC[S@+]([O-])c1nc2n(n1)[C@@H](c1ccccc1Cl)C[C@H]2F (single isomer, unassigned) [Example 101] | 47 |
| O=S(=O)(c1nc2n(n1)[C@H](c1c(F)cccc1F)C[C@@H]2F)C(F)F (single isomer, unassigned) [Example 58] | 34 |
| O=S(=O)(c1nc2n(n1)[C@H](c1ccccc1F)C[C@@H]2F)[C@@H]1CC1(F)F (single isomer, unassigned) [Example 124] | < 5 |
| O=S(=O)(c1nc2n(n1)[C@H](c1cccc(F)c1)C[C@@H]2F)[C@H]1C[C@@H]1F (single isomer, unassigned) [Example 141] | < 5 |
| O=S(=O)(c1nc2n(n1)[C@H](c1cc(F)cc(Cl)c1)C[C@@H]2F)C1CC1F (stereo in doubt) [Example 199, (5S,7S)-5-(3-chloro-5-fluoro-phenyl)-7-fluoro-2-[(1S,2S)-2-fluorocyclopropyl]sulfonyl-6,7-dihydro-5H-pyrrolo[1,2-b][1,2,4]triazole] | 8 |
| O=S(=O)(c1nc2n(n1)[C@H](c1ccc(F)c(F)c1)C[C@@H]2F)C1CC1 (single isomer, unassigned) [Example 44] | 21 |
| O=S(=O)(c1nc2n(n1)[C@@H](c1cccc(F)c1F)C[C@H]2F)C1CC1 (single isomer, unassigned) [Example 36] | 880 |
| O=S(=O)(c1nc2n(n1)[C@H](c1ccccc1)C[C@@H]2F)[C@H]1CC1(F)F [Example 130, (5S,7S)-2-(((S)-2,2-difluorocyclopropyl)sulfonyl)-7-fluoro-5-phenyl-6,7-dihydro-5H-pyrrolo[1,2-b][1,2,4]triazole] | 3 |
| O=S(=O)(c1nc2n(n1)[C@H](c1cccc(F)c1F)C[C@@H]2F)C(F)F (single isomer, unassigned) [Example 68] | 6 |
